Results as given in ChEMBL document CHEMBL1201862, “PubChem BioAssay data set” (2004).
The source made the active and inactive calls.

Legend:
[1] = target: T1, Streptokinase A (Streptococcus pyogenes serotype M1, UniProt P10520); experiment: viability-normalized secreted streptokinase activity reduction – plasminogen activation absorbance, OD405, dose response (AID 1914); format: functional, Streptococcus pyogenes M1 GAS;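 also: secreted streptokinase activity via plasminogen activation per viability signal from cell pellet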
T1 sequence (P10520 whole entry): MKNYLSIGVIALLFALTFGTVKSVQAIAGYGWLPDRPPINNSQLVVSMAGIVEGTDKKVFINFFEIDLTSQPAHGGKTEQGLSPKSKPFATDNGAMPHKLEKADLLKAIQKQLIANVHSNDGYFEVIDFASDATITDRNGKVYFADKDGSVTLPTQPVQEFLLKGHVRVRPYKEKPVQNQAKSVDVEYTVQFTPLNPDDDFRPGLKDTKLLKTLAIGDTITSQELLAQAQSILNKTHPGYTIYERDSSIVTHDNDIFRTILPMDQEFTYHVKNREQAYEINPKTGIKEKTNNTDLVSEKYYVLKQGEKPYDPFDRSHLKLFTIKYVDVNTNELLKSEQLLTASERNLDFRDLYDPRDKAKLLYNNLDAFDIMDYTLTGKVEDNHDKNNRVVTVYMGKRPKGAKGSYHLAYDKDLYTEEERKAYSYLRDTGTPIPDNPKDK

[2] = test system: Streptococcus; experiment: GAS UMAA2166 growth inhibition – luminescence, BacTiterGlo, counter-screen for streptokinase expression inhibitor project, dose response (AID 1915); format: functional, organism-based;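 also: potency for reduction of bacterial viability or growth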
[3] = target: Voltage-dependent T-type calcium channel subunit alpha-1H (Homo sapiens, UniProt O95180); format: functional;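 also: channel activity triggered by adding a high calcium stimulation buffer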
[4] = microbe, parasite or virus in culture; format: functional; details: Mycobacterium tuberculosis
[5] = test system: Streptococcus sp. 'group A'; experiment: Streptococcus pyogenes SK(-)GAS viability under kanamycin – luminescence, BacTiterGlo, confirmation, counter-screen for streptokinase expression inhibitor project, dose response (AID 1900); format: functional, organism-based
[6] = test system: H4; experiment: Luminescence Cell-Based Dose Response HTS to Identify Activators of 5'UTR Stem-Loop Driven Prion Protein mRNA Translation in H4 Neuroglioblastoma Cells. [Related pubchem assays: 1829 (Project Summary), 1814 (Primary HTS)]; format: functional; details: Homo sapiens
[7] = Luminescence Cell-Based Dose Response HTS to Identify Activators of Luciferase Translation or Activity in H4 […] Cells. [Related pubchem assays: 1829 (Project Summary), 1814 (Primary HTS)]; format: functional
[8] = Luminescence Cell-Based Dose Confirmation HTS to Identify Activators of 5'UTR Stem-Loop Driven Alpha-Synuclein mRNA Translation in H4 Neuroglioblastoma Cells. [Related pubchem assays: 1829 (Project Summary), 1814 (Primary HTS)]; format: functional
[9] = Luminescence Cell-Based Dose Response to Identify Activators of 5'UTR Stem-Loop Driven Prion Protein mRNA Translation in H4-C Neuroglioblastoma Cells. [Related pubchem assays: 1829 (Project Summary), 1814 (Primary HTS)]; format: functional
[10] = Luminescence Cell-Based Dose Confirmation to Identify Activators of 5'UTR Stem-Loop Driven Alpha-Synuclein mRNA Translation in H4 Neuroglioblastoma Cells. [Related pubchem assays: 1829 (Project Summary), 1814 (Primary HTS)]; format: functional
[11] = Luminescence Cell-Based Dose Response to Identify Activators of Luciferase Translation or Activity in H4-C Neuroglioblastoma Cells. [Related pubchem assays: 1829 (Project Summary), 1814 (Primary HTS)]; format: functional
[12] = target: Cytochrome P450 3A4 (Homo sapiens, UniProt P08684); details: Potency;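 also: confirmatory qHTS run detecting inhibitors and substrates of CYP3A4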
[13] = target: E3 ubiquitin-protein ligase Mdm2 (Homo sapiens, UniProt Q00987); experiment: MDM2-luc reporter signal enhancers, multi-concentration potency testing, MDM2 ubiquitin-protein ligase inhibitor program, whole-cell format, luminescence detection, 384-well microplate (AID 1394); format: functional;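 also: MDM2 E3 inhibitors raise luminescence so EC50 is for signal enhancement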
[14] = target: T2, Carboxy-terminal domain RNA polymerase II polypeptide A small phosphatase 1 (Homo sapiens, UniProt Q9GZU7); experiment: CTDSP1 inhibitors, concentration-response, biochemical, absorbance readout, ultra-high-throughput screen actives (AID 540297); format: functional
T2 sequence (Q9GZU7 whole entry): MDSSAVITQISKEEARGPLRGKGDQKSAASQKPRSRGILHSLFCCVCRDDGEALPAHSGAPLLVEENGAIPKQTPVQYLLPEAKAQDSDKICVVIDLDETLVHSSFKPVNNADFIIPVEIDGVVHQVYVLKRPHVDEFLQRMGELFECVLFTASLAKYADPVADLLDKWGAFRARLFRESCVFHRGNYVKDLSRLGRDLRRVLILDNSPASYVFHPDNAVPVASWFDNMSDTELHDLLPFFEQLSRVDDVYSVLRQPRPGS

[15] = target: NAD-dependent protein deacylase sirtuin-5, mitochondrial (Homo sapiens, UniProt Q9NXA8); experiment: sirtuin-5 deacylation blockers, concentration series – biochemical, fluorescence imaging, cherry-pick, set 5, dose response (AID 720591);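 also: desuccinylation of succinyl peptide AMC substrate read as fluorescence after trypsin release; potency of inhibitors that lower fluorescence and may act on trypsin instead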
[16] = target: T3, Rac GTPase-activating protein 1 (Homo sapiens, UniProt Q9H0H5); experiment: blockers of MgcRacGAP-driven Rac1 GTP hydrolysis – biochemical, ADP Hunter fluorescence, primary and confirmatory, confirmation (AID 624330); format: functional
T3 sequence (Q9H0H5 whole entry): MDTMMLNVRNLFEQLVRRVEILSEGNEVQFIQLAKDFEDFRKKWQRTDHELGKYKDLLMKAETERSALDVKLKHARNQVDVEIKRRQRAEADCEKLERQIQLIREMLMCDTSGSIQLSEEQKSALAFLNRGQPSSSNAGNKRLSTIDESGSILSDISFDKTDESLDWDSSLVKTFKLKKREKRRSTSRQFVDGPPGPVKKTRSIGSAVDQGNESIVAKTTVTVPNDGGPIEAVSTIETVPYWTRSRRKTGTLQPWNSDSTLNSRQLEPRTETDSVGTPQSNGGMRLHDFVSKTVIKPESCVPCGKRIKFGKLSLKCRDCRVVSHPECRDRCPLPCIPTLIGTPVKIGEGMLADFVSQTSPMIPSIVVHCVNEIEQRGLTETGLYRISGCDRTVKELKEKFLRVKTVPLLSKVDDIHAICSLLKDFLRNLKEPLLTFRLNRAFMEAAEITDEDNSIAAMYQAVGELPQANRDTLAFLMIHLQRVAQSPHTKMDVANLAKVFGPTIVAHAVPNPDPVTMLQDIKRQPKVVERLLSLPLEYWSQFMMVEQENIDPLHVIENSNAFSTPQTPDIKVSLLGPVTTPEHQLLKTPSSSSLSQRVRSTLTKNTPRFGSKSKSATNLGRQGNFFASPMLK

[17] = Trypanosoma cruzi growth suppression in host cells – NIH3T3 host cells, beta-gal luminescence, confirmation (AID 2044); format: functional, cell-based;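 also: intracellular parasites grown in NIH/3T3 mouse fibroblasts as host cells; luminescent beta-galactosidase reporter signal from transgenic T. cruzi replicating inside host cells; inhibitors lower the luminescence signal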
[18] = cells
[19] = NIH3T3 cell viability loss – ATP luminescence, mouse fibroblasts, counter-screen, dose response (AID 2010); format: functional, cell-based;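 also: cells exposed to compound for about 90 hours before reading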
[20] = target: Protein Wnt-3a (Mus musculus, UniProt P27467); experiment: antagonism of Wnt3a pathway luciferase reporter – Wnt-LIGHT cells, luminescence, selectivity assay for Gli-SUFU antagonist project, dose response (AID 651570); format: functional; details: read-out: IC50_Mean;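 also: Wnt-LIGHT reporter cells stimulated with conditioned medium from Wnt3a-producing cells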
[21] = M. tuberculosis H37Rv growth inhibitors, H37Rv strain (AID 1626); format: functional
[22] = target: Paired box protein Pax-8 (Homo sapiens, UniProt Q06710); experiment: PAX8 transcriptional activity inhibition in RMG-I – RMG-I cells, luciferase, cherry-pick, dose response (AID 687027); format: functional, cell-based;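 also: luciferase reporter driven by Pax8 target thyroperoxidase promoter measured by SteadyGlo luminescence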
Chain of Paired box protein Pax-8 (Q06710 whole entry): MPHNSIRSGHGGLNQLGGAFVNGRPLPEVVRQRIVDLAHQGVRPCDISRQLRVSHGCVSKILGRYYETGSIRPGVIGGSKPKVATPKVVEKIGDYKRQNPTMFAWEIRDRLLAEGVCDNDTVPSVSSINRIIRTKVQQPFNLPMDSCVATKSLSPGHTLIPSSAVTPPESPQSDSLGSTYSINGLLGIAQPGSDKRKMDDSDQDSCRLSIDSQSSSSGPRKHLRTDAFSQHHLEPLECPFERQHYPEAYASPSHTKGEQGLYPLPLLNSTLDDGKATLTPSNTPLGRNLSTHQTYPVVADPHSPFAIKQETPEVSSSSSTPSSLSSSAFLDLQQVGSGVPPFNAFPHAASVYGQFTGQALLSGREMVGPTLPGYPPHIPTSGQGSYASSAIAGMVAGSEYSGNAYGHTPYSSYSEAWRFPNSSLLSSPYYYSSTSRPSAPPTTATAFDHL

Chain of NAD-dependent protein deacylase sirtuin-5, mitochondrial (Q9NXA8 whole entry): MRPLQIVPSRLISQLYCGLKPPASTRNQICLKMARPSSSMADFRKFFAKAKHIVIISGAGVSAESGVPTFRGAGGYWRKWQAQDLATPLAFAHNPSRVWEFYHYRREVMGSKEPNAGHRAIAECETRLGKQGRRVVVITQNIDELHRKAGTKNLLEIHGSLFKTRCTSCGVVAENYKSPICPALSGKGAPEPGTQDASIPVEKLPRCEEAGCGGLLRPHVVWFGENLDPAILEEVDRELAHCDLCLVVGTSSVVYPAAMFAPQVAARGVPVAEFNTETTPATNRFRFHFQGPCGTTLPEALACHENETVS
Chain of Voltage-dependent T-type calcium channel subunit alpha-1H (O95180 whole entry): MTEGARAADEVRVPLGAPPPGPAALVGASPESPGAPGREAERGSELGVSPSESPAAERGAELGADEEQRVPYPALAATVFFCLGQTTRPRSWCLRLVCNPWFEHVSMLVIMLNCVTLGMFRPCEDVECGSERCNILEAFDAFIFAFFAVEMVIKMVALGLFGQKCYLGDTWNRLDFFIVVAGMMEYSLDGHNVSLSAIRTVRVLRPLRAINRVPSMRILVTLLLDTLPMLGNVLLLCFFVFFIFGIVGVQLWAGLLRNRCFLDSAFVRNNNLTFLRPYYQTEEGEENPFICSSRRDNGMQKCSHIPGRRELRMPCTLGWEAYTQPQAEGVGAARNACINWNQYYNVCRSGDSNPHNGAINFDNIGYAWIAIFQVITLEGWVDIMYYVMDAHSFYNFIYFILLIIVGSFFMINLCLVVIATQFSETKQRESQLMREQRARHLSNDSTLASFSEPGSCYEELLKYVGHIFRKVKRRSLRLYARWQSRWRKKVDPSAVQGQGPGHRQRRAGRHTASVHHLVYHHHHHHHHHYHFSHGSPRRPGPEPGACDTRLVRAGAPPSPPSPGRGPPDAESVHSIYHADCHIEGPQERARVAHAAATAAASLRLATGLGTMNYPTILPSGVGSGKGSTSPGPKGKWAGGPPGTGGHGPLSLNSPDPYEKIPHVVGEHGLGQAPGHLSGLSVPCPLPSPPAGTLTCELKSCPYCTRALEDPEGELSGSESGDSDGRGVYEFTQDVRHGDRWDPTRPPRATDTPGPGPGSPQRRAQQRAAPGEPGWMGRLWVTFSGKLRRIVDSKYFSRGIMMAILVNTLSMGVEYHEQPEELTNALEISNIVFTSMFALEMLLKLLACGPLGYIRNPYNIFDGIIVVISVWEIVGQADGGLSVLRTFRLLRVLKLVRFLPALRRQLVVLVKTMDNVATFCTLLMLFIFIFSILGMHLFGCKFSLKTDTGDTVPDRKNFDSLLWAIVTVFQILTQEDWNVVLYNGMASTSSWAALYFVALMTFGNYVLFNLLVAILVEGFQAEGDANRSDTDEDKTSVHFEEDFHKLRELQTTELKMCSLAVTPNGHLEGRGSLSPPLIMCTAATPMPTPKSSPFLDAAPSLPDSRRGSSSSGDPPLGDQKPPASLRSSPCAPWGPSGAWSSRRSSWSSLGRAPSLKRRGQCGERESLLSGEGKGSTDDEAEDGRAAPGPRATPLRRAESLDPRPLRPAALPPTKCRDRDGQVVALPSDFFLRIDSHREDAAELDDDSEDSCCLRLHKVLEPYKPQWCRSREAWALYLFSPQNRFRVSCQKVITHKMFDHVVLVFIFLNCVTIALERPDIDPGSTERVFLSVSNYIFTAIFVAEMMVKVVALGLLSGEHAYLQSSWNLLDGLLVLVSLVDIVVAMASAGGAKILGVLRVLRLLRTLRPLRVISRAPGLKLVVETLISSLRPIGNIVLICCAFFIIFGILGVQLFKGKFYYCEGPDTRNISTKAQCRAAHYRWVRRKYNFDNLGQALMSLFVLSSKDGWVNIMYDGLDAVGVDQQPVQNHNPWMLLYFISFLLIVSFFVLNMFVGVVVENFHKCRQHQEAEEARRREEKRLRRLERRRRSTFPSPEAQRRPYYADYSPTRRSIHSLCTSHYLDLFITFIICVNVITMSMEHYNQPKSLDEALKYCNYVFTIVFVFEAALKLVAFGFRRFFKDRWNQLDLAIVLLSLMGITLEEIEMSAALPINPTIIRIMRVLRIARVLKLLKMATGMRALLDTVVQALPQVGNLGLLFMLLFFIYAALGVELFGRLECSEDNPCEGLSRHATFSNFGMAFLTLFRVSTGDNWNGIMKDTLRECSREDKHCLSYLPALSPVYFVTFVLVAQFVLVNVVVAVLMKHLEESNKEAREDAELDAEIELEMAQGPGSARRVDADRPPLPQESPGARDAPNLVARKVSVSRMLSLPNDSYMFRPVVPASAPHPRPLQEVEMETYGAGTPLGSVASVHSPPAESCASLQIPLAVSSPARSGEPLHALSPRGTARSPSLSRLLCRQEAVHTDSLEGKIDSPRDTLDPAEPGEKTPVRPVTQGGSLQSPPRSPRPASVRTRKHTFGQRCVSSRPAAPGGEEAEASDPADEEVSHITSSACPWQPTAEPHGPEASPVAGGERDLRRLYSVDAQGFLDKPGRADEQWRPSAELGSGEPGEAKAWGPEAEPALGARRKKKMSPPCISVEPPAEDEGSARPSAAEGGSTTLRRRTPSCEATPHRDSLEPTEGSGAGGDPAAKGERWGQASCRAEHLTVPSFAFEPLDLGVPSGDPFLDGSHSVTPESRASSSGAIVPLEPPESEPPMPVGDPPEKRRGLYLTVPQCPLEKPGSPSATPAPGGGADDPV
Chain of E3 ubiquitin-protein ligase Mdm2 (Q00987 whole entry, the tested form may be a part): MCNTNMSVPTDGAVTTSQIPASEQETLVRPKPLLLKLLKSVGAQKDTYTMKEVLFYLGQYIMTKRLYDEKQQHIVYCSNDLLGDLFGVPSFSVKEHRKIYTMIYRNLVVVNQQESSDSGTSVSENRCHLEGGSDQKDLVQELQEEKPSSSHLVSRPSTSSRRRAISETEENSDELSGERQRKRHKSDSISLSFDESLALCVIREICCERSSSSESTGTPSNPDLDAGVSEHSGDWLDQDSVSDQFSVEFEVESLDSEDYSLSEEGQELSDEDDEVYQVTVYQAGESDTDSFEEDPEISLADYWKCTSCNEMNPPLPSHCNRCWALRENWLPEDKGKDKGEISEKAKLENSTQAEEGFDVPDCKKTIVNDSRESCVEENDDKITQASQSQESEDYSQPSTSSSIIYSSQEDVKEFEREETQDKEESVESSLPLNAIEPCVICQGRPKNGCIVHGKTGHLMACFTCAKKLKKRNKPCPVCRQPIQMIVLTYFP
Chain of Protein Wnt-3a (P27467 whole entry): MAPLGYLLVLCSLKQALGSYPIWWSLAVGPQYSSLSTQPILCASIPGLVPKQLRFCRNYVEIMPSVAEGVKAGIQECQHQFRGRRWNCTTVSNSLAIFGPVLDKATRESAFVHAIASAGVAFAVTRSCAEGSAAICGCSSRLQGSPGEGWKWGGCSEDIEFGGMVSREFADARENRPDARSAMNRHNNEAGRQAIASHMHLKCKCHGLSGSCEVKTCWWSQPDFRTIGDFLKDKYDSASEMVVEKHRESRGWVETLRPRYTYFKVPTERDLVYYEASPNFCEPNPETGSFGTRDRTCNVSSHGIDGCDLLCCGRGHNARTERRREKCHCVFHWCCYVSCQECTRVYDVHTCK
Chain of Cytochrome P450 3A4 (P08684 whole entry): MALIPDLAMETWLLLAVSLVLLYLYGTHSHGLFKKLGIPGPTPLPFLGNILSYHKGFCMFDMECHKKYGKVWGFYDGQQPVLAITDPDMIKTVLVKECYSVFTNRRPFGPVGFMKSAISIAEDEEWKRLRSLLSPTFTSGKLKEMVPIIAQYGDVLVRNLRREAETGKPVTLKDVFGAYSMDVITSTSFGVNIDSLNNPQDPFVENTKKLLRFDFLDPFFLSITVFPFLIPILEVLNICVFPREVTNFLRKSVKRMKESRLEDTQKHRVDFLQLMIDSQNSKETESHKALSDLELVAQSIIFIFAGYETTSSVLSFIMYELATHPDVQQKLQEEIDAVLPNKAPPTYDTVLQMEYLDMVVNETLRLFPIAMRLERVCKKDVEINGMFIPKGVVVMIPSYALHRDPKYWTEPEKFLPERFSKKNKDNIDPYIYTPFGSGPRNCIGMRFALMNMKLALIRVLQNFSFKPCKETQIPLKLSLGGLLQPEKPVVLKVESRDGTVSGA

## O=C(OCc1ccccc1)c1cccc(-c2nnn(Cc3ccccc3)n2)c1
[1]
  EC50: 26 µM (inconclusive)
[2]
  EC50: > 150 µM (not active)
[3]
  EC50: 9.03 µM (active)
[4]
  CC50: > 40 µM (active)
[5]
  EC50: > 150 µM (not active)

## CCCOc1ccccc1Cn1c(=O)oc2ccc(C)cc21
[3]
  EC50: 10.6 µM (active)

## O=C(c1cc(COc2ccc(F)cc2Cl)on1)N1CCSCC1
[6]
  EC50: 0.1 µM (active)
[7]
  EC50: 4 µM (active)
[8]
  EC50: 0.787 µM (active)
[9]
  EC50: > 12 µM (not active)
[10]
  EC50: 0.63 µM (active)
[11]
  EC50: > 12 µM (not active)

## COC(=O)CC1C(C)(C)C2(O)OC34CC2C(=O)[C@@]1(C)C3CC[C@]1(C)C4=CC(=O)OC1c1ccoc1 (some centres undefined)
[12]
  AC50: 3.16 µM (inconclusive)

## CC1(C)CC2=Nc3nc(SCCN4CCOCC4)nc(O)c3C(c3cccs3)C2=C(O)C1 (centres undefined)
[13]
  EC50: 47.7 µM (not active)

## O=C(O)CSc1ncnc2c1sc1nc(-c3ccccc3)c3c(c12)CCC3
[14]
  IC50: 4.04 µM (active)
[15]
  AC50: > 30 µM (inactive)

## COc1ccccc1-c1c[nH]nc1-c1ccc(O)cc1O
[15]
  AC50: 21.6 µM (active)
[16]
  IC50: 42.4 µM (active)

## CCOC(=O)c1c(NC(=O)Cn2cnc([N+](=O)[O-])n2)sc2c1CCC(C)C2 (centres undefined)
[17]
  EC50: < 0.1 µM (active)
[18]
  EC50: 0.221 µM (active)
[19]
  EC50: > 60 µM (not active)

## C(=C\c1ccccc1)/CN1CCN(Cc2ccc3c(c2)OCCO3)CC1
[17]
  EC50: < 0.1 µM (active)
[18]
  EC50: 0.053 µM (active)
[19]
  EC50: > 60 µM (not active)

## CCOC(=O)N1CCN(C(=O)c2cc(COc3ccc4ncccc4c3)on2)CC1
[20]
  IC50: 0.555 µM (active)
[15]
  AC50: > 30 µM (inactive)

## C=C1C2(C(=O)Nc3ccc(SC(F)F)cc3)CCC(C2)C1(C)C (centres undefined)
[21]
  IC50: > 100 µM (active)
[22]
  AC50: 62.8 µM (active)

## Cc1cc(C)nc(S/C=C/C(=O)c2ccc(F)cc2)n1
[13]
  EC50: 0.81 µM (active)
